Reference: US20210340177A1, “BIOACTIVE PEPTIDES HAVING HIGH BINDING AFFINITY TO HUMAN MUSCULAR NICOTINIC ACETYLCHOLINE RECEPTOR” (priority 2020, published 2021)

Tests used:
muscle cells = type: cell-based; details: for Contraction of muscle cells after the washing step (reversibility): incubation for 24 hours followed by a washing step
Experimental: The efficacy of peptides V0083091A (KKYK; SEQ ID NO: 1) and V0083092A (KWKK; […]. Muscle cells were incubated or treated without (control) or with compounds, for example, peptides V0083091A and V0083092A, and contraction of the muscle cells was evaluated after incubation for 5 hours, after incubation for 24 hours, or after incubation for 24 hours followed by a washing step.

[1] = test system: Human epidermal keratinocytes (HEKs); assay: MTT assay on human epidermal keratinocytes in in vitro cultures; details: 24 hours after treatment
[2] = target: human muscular nicotinic acetylcholine receptor (HmnAChR) (Homo sapiens, UniProt P02708+Q04844); assay: Binding energy of peptides in the HmnAChR binding site over runs of genetic algorithm; details: Table 3, difference of binding energies (no unit printed in Table 3)
[3] = target: human muscular nicotinic acetylcholine receptor (HmnAChR) (human)
human muscular nicotinic acetylcholine receptor (HmnAChR) (human), sequence (P02708 21-457, chain 1 of 4): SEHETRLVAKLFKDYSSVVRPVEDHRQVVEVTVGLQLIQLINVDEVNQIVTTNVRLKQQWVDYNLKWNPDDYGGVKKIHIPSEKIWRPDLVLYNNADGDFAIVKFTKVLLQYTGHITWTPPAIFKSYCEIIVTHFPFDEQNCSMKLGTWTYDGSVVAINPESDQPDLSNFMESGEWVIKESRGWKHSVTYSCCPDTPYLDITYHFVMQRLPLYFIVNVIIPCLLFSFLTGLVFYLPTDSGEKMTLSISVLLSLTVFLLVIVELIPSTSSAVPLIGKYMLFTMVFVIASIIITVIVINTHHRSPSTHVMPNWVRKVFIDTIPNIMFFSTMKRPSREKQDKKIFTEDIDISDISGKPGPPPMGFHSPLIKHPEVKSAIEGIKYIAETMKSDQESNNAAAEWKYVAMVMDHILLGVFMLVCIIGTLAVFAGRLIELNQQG
human muscular nicotinic acetylcholine receptor (HmnAChR) (human), sequence (P11230 24-501, chain 2 of 4, further chain): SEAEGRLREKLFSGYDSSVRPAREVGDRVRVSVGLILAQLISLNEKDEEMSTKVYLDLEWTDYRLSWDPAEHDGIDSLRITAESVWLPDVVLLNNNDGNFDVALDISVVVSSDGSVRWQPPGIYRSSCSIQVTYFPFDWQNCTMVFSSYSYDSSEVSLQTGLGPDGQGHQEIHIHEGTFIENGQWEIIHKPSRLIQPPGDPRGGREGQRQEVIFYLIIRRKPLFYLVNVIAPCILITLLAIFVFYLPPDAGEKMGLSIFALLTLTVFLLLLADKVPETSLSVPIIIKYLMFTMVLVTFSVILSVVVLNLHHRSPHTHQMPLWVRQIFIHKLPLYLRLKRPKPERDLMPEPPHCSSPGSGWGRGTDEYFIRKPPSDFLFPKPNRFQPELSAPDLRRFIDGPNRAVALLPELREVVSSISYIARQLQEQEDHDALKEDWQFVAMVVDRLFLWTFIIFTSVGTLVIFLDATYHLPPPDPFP
human muscular nicotinic acetylcholine receptor (HmnAChR) (human), sequence (Q07001 22-517, chain 3 of 4, further chain): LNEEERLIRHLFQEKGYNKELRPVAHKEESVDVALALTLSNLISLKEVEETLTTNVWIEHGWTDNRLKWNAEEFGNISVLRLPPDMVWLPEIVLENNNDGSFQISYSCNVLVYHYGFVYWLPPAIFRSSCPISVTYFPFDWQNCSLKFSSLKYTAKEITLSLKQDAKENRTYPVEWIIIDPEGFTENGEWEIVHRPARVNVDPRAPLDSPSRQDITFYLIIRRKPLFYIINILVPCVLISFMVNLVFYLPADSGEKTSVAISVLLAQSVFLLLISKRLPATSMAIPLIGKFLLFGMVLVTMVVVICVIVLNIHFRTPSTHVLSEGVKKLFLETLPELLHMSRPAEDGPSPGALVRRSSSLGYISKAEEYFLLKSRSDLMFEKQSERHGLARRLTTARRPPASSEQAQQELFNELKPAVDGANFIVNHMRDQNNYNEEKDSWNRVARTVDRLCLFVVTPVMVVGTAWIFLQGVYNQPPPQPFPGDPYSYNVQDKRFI
human muscular nicotinic acetylcholine receptor (HmnAChR) (human), sequence (Q04844 21-493, chain 4 of 4, further chain): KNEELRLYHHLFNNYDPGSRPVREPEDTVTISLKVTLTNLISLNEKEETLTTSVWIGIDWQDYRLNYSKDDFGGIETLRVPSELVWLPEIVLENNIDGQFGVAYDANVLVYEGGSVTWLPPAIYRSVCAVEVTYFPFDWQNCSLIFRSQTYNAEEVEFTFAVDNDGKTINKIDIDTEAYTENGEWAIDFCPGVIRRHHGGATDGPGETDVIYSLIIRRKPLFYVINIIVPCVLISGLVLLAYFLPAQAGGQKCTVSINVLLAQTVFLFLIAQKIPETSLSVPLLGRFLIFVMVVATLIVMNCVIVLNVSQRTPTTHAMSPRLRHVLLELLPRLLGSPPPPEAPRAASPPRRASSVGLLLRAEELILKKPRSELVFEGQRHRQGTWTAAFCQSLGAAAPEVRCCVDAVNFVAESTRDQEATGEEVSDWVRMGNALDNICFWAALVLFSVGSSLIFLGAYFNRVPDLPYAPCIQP

human muscular nicotinic acetylcholine receptor (HmnAChR), sequence (P02708 21-457): as the sequence (P02708 21-457, chain 1 of 4) above
human muscular nicotinic acetylcholine receptor (HmnAChR), sequence (Q04844 21-493): as the sequence (Q04844 21-493, chain 4 of 4, further chain) above
human muscular nicotinic acetylcholine receptor (HmnAChR), sequence (P11230 24-501 partner): as the sequence (P11230 24-501, chain 2 of 4, further chain) above
human muscular nicotinic acetylcholine receptor (HmnAChR), sequence (Q07001 22-517 partner): as the sequence (Q07001 22-517, chain 3 of 4, further chain) above

## C/C=C/C=C\CC/C=C/C(=O)NCC(C)C [spilanthol]
Muscle cells; 1 μM or 10 μM, 5 or 24 hours after incubation, p value<5%
  Inhibition of contraction of muscle cells, effect size: 1.5-2
Muscle cells
  Contraction of muscle cells after the washing step (reversibility): inhibitory effect was lost

## Lys-Lys-Tyr-Lys [Peptide V0083091A]
[1]
  Proliferation of the HEKs: induced proliferation
Muscle cells; 1 μM, observable after incubation for 24 hours
  Inhibition effect on muscle cell contraction: much less inhibition effect
Muscle cells
  Contraction of muscle cells after the washing step (reversibility): no clear recovery of the contraction power

## dipeptide diaminobutyroyl benzylamide diacetate [SYN ®-AKE]
[2]
  (Best Result − Average): -12.6 kJ/mol

## peptide V0083091A (KKYK; SEQ ID NO: 1)
[3]
  Binding Energy, All 100 Average: -35.1 kJ/mol
  Binding Energy, Best Result: -47.7 kJ/mol
  Binding Energy, Top 10 Average: -42.6 kJ/mol
